# Entries after “also recorded” stand apart in the source; their conditions may differ. Read-outs that look alike come from different tables or passages of the source.
# What was measured:
# [1] = test system: PDK-dependent activation of Akt1; assay: In vitro PDK-dependent Akt1 phosphorylation and activity assay (immunoprecipitated PDK1 and Akt1, GSK-3 fusion protein substrate); type: biochemical, human (SH-SY5Y, HEK293), mouse (C2C12); conditions: for IC50: in vitro Aβ conditions; for Ki: monomeric-predominant preparations
# Method: Akt1 was immunoprecipitated (IP) overnight from 100 μg of the human brain sample or from C2C12 myotubes infected with adenovirus encoding Aβ using a 1:100 dilution of goat anti-Akt1 antibody. The following morning, 40 μl of a 50% slurry of protein G-Agarose (PGA) (Roche Applied Science) was added for an additional 1.5 hours. The beads were washed twice with wash buffer [1× phosphate buffered saline (PBS), 0.5% NP-40, 0.1 mM Na3VO4] and twice with kinase buffer [25 mM Tris (pH 7.5), 2 mM DTT, 0.1 mM Na3VO4, 10 mM MgCl2]. ATP (200 μM) and GSK-3 fusion protein (1 μg/50 μl) were added in the presence of kinase buffer, and the final reaction (50 μl) was incubated 30 minutes at 30° C. The reaction was stopped by adding 40 μl of Laemmli buffer. 20 μl of sample was loaded onto a 10% polyacrylamide gel for fractionation and western detection development.
# Immunoprecipitates (IPs) of PDK1 and Akt were prepared from 100 μg of either SH-SY5Y, C2C12 myotubes or from insulin-treated cultures. ATP (200 μM), GSK-3 fusion protein (1 μg/50 μl) and kinase buffer were added to the reaction. Various Aβ peptides were finally added at 0.01, 0.1, 1, 5, 10, 20 μM. Akt activity level was otherwise determined as above.
# [2] = test system: PI3K (p85) from NIH/3T3 cells; assay: PI3K activity assay (conversion of PI to PI3P, TLC); type: biochemical
# Method: PI3K was immunoprecipitated (IP) from the NIH/3T3 cell lysates with rabbit anti-p85 subunit (Upstate). The IPs were washed twice with cold phosphate buffered saline (PBS) buffer containing 0.5% NP-40 and 0.1 mM Na3VO4, and then twice with THE buffer [Tris.HCl pH7.4 20 mM, NaCl 100 mM, EGTA 0.5 mM]. PI3K activity was determined by incubating the beads with kinase buffer [6.5 mM HEPES (pH 7.4), 10 mM MgCl2] with 50 μM ATP, 2 μCi [y-32P]ATP, 4 μg of 3-sn-Phosphatidyl-L-serine (PS) and 2 μg of D-myo-Phosphatidylinositol (PtdIns; PI) (Echelon, Salt Lake City, Utah) for 10 min at room temperature. The reactions were stopped by adding 50 μl of 4N HCl. Phospholipids were extracted using 100 μl of CHCl3/methanol (1:1). […] The conversion of PI to PI3P was detected and quantified using a Storm Phosphorimager (GE Healthcare).
# Phosphatidylinositol (PI), including phosphatidylserine (PS) as a carrier, was used as a substrate for PI3K activity assay. [y-32P]ATP and kinase buffer were added to the IP and lipid mixture at room temperature to start the reaction. Phospholipids were extracted in 100 μl of CHCl3/methanol and separated by TLC. Bar charts give quantified results using a phosphorimager.
# Rictor-stimulated Akt1 = target: T1, Rictor-stimulated Akt1; assay: Rictor-dependent Akt1 activity, in vitro kinase assay; type: biochemical, mouse (C2C12 myotubes); conditions: 10 μM
# T1 construct: endogenous in cells; host or cells: Rictor from insulin-treated C2C12 myotubes
# Excerpt: Another kinase, termed SGK (serum/glucocorticoid regulated kinase), is also activated by PDK. Similar to Akt, SGK has a PH domain and phosphorylates GSK-3 α/β (Kobayashi, T., Deak, M., Morrice, N., and Cohen, P., 1999, Characterization of the structure and regulation of two novel isoforms of serum- and glucocorticoid-induced protein kinase, Biochem J 344 Pt 1:189-197, and Tessier, M., and Woodgett, J. R., 2006, Serum and glucocorticoid-regulated protein kinases: variations on a theme, J Cell Biochem 98:1391-1407). If Aβ inhibits PH-mediated activations of Akt independent of PIP3, it is predicted to affect this mechanism too. Indeed, in FIG. 7D, ADDL-containing Aβ preparations inhibited PDK-stimulated SGK activity (lane 7 vs. 6 and 5). […] This enhanced activity was not however, interrupted by Aβ (10 μM, lane 4 vs. 3). Lastly, another kinase that converges to phosphorylate GSK, PKA (Grimes, C. A., and Jope, R. S., 2001, The multifaceted roles of glycogen synthase kinase 3beta in cellular signaling, Prog Neurobiol 65:391-426; Li, M., Wang, X., Meintzer, M. K., Laessig, T., Birnbaum, M. J., and Heidenreich, K. A., 2000, Cyclic AMP promotes neuronal survival by phosphorylation of glycogen synthase kinase 3beta, Mol Cell Biol 20:9356-9363), was tested. […] Thus, the mechanism of Aβ inhibition of Akt activation is specific to PDK-like kinases. […]
# [3] = FIG. 7A, vs reverse peptide 5 μM
# T1 sequence (P31749 whole entry): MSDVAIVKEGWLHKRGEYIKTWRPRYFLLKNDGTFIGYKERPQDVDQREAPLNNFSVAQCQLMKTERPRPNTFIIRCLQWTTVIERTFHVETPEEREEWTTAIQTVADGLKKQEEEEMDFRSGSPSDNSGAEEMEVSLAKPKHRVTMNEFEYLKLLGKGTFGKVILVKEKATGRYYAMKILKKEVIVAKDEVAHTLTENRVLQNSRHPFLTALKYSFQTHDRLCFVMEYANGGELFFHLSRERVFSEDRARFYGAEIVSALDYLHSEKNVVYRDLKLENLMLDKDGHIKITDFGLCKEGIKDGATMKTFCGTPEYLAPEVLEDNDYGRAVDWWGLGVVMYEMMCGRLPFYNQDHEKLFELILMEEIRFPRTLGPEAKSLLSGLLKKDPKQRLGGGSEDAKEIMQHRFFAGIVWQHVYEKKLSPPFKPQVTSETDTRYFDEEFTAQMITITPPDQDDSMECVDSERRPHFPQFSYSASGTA
substance,measurement,setting,value
"Aβ42: synthetic 42 amino acid β-amyloid peptide, forward sequence, freshly prepared, predominantly monomeric (BioSource)",effect on PDK-stimulated Akt activity (GSK-3 substrate phosphorylation),[1]; 5 μM (or doses up to 5 μM),dramatically inhibited
same,effect on PDK-stimulated Akt activity / Akt phosphorylation,[1]; 10 μM,completely abrogated
same,inhibition of Akt phosphorylation,"[1]; 10 μM, freshly prepared predominantly monomeric peptide",up to 50%
same,effect on PDK-stimulated Akt activity / Akt phosphorylation,"[1]; 10 μM, listed as Aβ",inhibited
same,concentrations that significantly inhibit Akt phosphorylation (activation),[1]; [3],≥ 10 µM
same,concentrations that significantly inhibit the stimulation of Akt activity,[1]; [3],≥ 5 µM
same,"concentration at which Akt activation (pSer473, pThr308) and Akt activity begin to be affected","[1]; SH-SY5Y IP kinases, FIG. 6B",~1 μM
same,IC50,"[1]; FIG. 7A, read-out: PDK-dependent Akt1 phosphorylation (Ki50)",~10000 nM
same,IC50,"[1]; activity assay, FIG. 7A, listed as Aβ, read-out: PDK-dependent Akt1 activation (Ki50)",~1000 nM
same,IC50,"[1]; activity assay, FIG. 7A, read-out: PDK-dependent Akt1 activation (Ki50)",1000 nM
same,Ki,[1]; read-out: Ki in activity assays,~2000 nM
same,Ki,[1]; read-out: Ki in western blots of p-Akt levels,~10000 nM
same,PDK stimulation of Akt activity after preincubation and washout,"[1]; preincubation of both IP kinases, washout before kinase reaction",no inhibitory effect
same,PI3K activity,[2]; 10 μM peptide,did not; also recorded: no effect
same,PI3K activity,"[2]; dose-response: Aβ1-42 0.05, 0.5, 5 μM, reverse Aβ42-1 5 μM",no effect
same,Rictor-stimulated Akt1 activity,Rictor-stimulated Akt1,no change

# Reference: US9618511B2, “Methods and compositions for treating alzheimer's disease” (Eleanore Bennett Charitable Trust #2, priority 2008, dated 2017)
